Source: publication PMC8196787, “Design and Pharmacodynamics of Recombinant Fungus Defensin NZL with Improved Activity against Staphylococcus hyicus In Vitro and In Vivo” (International Journal of Molecular Sciences, 2021)
In brackets after ≈: the same amount, converted by molar mass. Several values for one entry are separate records, joined by “and”; a condition that tells them apart may be missing. Identical values can stand only once. Like-named read-outs stand apart in the source and are kept apart here. Positions of bridges follow the written chain, without caps; N, C: chain ends. Residues, ends and D or L forms follow the SMILES beside them.

Legend:
[1] = tested on: S. hyicus ACCC 61734; assay: microbe, parasite or virus in culture; type: cell-based; conditions: for MIC: S. hyicus ACCC 61734 (clinical strain), microbroth dilution, MHB, 37 °C, 16–20 h, triplicate, read-out: MIC
Description: (§1) The microbroth dilution method was used to evaluate the MIC values of new derivative peptides. […] The MIC value was defined as the lowest concentration where no visible bacteria growth occurred after overnight incubation. CRO was used as the positive control. All assays were conducted in triplicate.

[2] = tested on: S. aureus ATCC 43300; assay: microbe, parasite or virus in culture; type: cell-based; conditions: read-out: MIC
Description: as §1

[3] = tested on: S. hyicus NCTC 10350; assay: microbe, parasite or virus in culture; type: cell-based; conditions: MHB, 37 °C, 16–20 h, triplicate
Description: as §1

[4] = tested on: S. aureus ATCC 25923; assay: microbe, parasite or virus in culture; type: cell-based; conditions: MHB, 37 °C, 16–20 h, triplicate
Description: as §1

[5] = tested on: S. hyicus NCTC 10350; assay: Time-killing curves; type: cell-based
Description: Time-kill curves were performed to assess the bactericidal rates of peptides against S. hyicus NCTC 10350 [25]. […] The samples were taken at regular intervals for colony counting. Cells treated with PBS and CRO were used as the negative control and positive control.

[6] = tested on: intracellular S. hyicus NCTC 10350 in Hacat cells; type: cell-based; conditions: 24 h treatment, mean, n = 3; for Killing rate of intracellular S. hyicus: 1000× MIC
Description: Hacat cells (2.5 × 10^5 cells/mL) were dispensed into a 12-well plate for 24 h. Besides, the mid-log phase S. hyicus NCTC 10350 (2.5 × 10^7 CFU/mL) were coincubated with Hacat cells for 0.5 h. Then, lysostaphin was supplemented to kill extracellular bacteria. Hereafter, cells were treated with peptides or CRO for 24 h and lysed with lysis buffer. The intracellular bacteria were processed for colony counting.

[7] = tested on: IL-6; assay: Mouse peritonitis model, serum cytokine ELISA; type: in vivo
Description: (§2) Likewise, mice (15 mice/group) were injected with the exponential phase S. hyicus NCTC 10350 cells (1 × 10^9 CFU/mL, 1 mL) and treated with 10 mg/kg peptides or 60 mg/kg CRO. After 2 and 24 h post-treatment, sera were collected to test the levels of cytokines using enzyme linked immunosorbent assay (ELISA) kit. To evaluate bacterial translocation, organs were harvest from mice at 24-h post-treatment for colony counting; then, organs were removed from mice at 5 d post-treatment and observed through a light microscope to assess organ injury. The uninfected mice, the treated mice with CRO or PBS were served as the blank control, positive and negative control, respectively.

[8] = tested on: TNF-α; assay: Mouse peritonitis model, serum cytokine ELISA; type: in vivo
Description: as §2

[9] = tested on: IL-1β; assay: Mouse peritonitis model, serum cytokine ELISA; type: in vivo
Description: as §2

[10] = tested on: S. hyicus NCTC 10350; assay: Mouse peritonitis model, bacterial translocation; type: in vivo; conditions: 24 h post-treatment, mean, n = 5
Description: as §2

[11] = tested on: S. hyicus NCTC 10350; assay: Mouse peritonitis model, survival; type: in vivo; conditions: 7 days
Description: The mice (6 mice/group) were intraperitoneally infected with the exponential phase S. hyicus NCTC 10350 cells (1 × 10^9 CFU/mL, 1 mL) to establish a mouse peritonitis model. […] Survival of mice was recorded daily for 7 days.

[12] = tested on: S. hyicus NCTC 10350; assay: Thermal stability, inhibition zone assay; type: physicochemical; conditions: 1 h, 64 μg/mL, inhibition zone against S. hyicus NCTC 10350, triplicate
Description: (§3) The stability of NZL or NZ2114 against S. hyicus NCTC 10350 was conducted by inhibition zone assays. To evaluate the thermal stability, 64 μg/mL NZL or NZ2114 was incubated at different temperatures (20 °C, 40 °C, 60 °C, 80 °C, and 100 °C) for 1 h. Besides, aliquots of NZL or NZ2114 were dissolved in different pH buffers in a range from 2.0 to 10.0 at 37 °C for 3 h to analyze the pH stability. NZL or NZ2114 was mixed with pepsin or trypsin solutions at a ratio of 10:1 (w/w) to determine the protease stability. The untreated peptides and buffers alone were used as positive controls and negative controls, respectively. All assays were conducted in triplicate.

[13] = tested on: mouse erythrocytes; assay: Hemolysis; type: cell-based; conditions: at 256 μg/mL; 8% (v/v) mouse erythrocytes in 0.9% NaCl, 37 °C, 1 h, 540 nm; n = 3
Description: The hemolytic activity of peptides against fresh mouse erythrocytes was evaluated as described previously. In brief, 8% (v/v) erythrocyte solution in 0.9% NaCl was mixed with peptide solution (1–256 μg/mL) in an equal volume; then the mixtures were incubated at 37 °C for 1 h, centrifuged at 5000 rpm for 5 min and measured at 540 nm on a microplate reader. The absorbance of 0.9% NaCl (A0) and 0.1% Triton X-100 (A100) was used as controls. The hemolysis percentages of peptide were calculated by the following equation: Hemolysis (%) = [(A − A0)/(A100 − A0)] × 100.

[14] = tested on: S. hyicus NCTC 10350; assay: Mouse peritonitis model, organ injury by light microscope; type: in vivo; conditions: 10 mg/kg, organs harvested at 5 d
Description: as §2

[15] = tested on: Hacat cells; assay: Cytotoxicity, MTT assay; type: cell-based; conditions: within 256 μg/mL (1–256 μg/mL), n = 3
Description: The cytotoxicity of peptides toward Hacat cells was determined by the 3-(4,5-dimethylthiazol-2-yl)-2,5-diphenyltetrazolium bromide (MTT) assay according to a previous study.

[16] = tested on: S. hyicus NCTC 10350; assay: pH stability, inhibition zone assay; type: physicochemical; conditions: 3 h, triplicate
Description: as §3

[17] = microbroth dilution, read-out: MIC

## CO/N=C(\C(=O)N[C@@H]1C(=O)N2C(C(=O)O)=C(CSc3nc(=O)c(=O)[nH]n3C)CS[C@H]12)c1csc(N)n1 [CRO, ceftriaxone, reference compound]
[1]; Staphylococcus hyicus, ACCC61734
  MIC: 4 µg/mL and 6.04 µM
[2]; Staphylococcus aureus, ATCC43300, S. aureus ATCC 43300, microbroth dilution, MHB, 37 °C, 16–20 h, triplicate
  MIC: 12.1 µM
[2]; Staphylococcus aureus, ATCC43300
  MIC: 8 mg/L
[3]; Staphylococcus hyicus, NCTC10350, microbroth dilution, read-out: MIC
  MIC: 8 µg/mL and 12.1 µM
[4]; Staphylococcus aureus, ATCC25923, microbroth dilution, read-out: MIC
  MIC: 4 µg/mL and 6.04 µM
[5]; 2× MIC, at 24 h
  Bacterial count at regrowth: 5.65 Log10 CFU/mL
[6]; 1× MIC, colony counting
  Decrease of intracellular S. hyicus: 88.53%
[6]; 5× MIC
  Decrease of intracellular S. hyicus: 89.25%
[6]; 10× MIC
  Decrease of intracellular S. hyicus: 83.87%
[6]
  Killing rate of intracellular S. hyicus: 97.6%
[7]; 60 mg/kg, 2 h after treatment
  Serum level of IL-6: 981.56 pg/mL
[7]; 60 mg/kg, 24 h after treatment
  Serum level of IL-6: 85.74 pg/mL
[8]; 60 mg/kg, 2 h after treatment
  Serum level of TNF-α: 233.16 pg/mL
[8]; 60 mg/kg, 24 h after treatment
  Serum level of TNF-α: 3.43 pg/mL
[9]; 60 mg/kg, 2 h after treatment
  Serum level of IL-1β: 94.75 pg/mL
[9]; 60 mg/kg, 24 h after treatment
  Serum level of IL-1β: 11.60 pg/mL
[10]; 60 mg/kg
  Bacterial counts in blood: 1.02 Log10 CFU/0.1 g
  Bacterial counts in kidneys: 4.69 Log10 CFU/0.1 g
  Bacterial counts in livers: 4.35 Log10 CFU/0.1 g
  Bacterial counts in lungs: 5.21 Log10 CFU/0.1 g
  Bacterial counts in spleens: 5.19 Log10 CFU/0.1 g
[11]; 30 mg/kg and 60 mg/kg i.p. at 2 h and 8 h post-infection, compared with NZL 5 mg/kg and 10 mg/kg
  Survival rate: identical survival rates with NZL

## CC[C@H](C)[C@@H]1NC(=O)[C@H](CO)NC(=O)[C@H](CCCCN)NC(=O)[C@@H]2CSSC[C@@H](C(=O)N[C@@H](Cc3ccc(O)cc3)C(=O)O)NC(=O)[C@H](CCCCN)NC(=O)[C@@H]3CSSC[C@H](NC(=O)[C@H](CCC(N)=O)NC(=O)[C@H]([C@@H](C)CC)NC(=O)[C@H](CC(=O)O)NC(=O)[C@H](CC(=O)O)NC(=O)[C@H](CCC(=O)O)NC(=O)[C@H](CO)NC(=O)[C@H](Cc4c[nH]c5ccccc45)NC(=O)[C@@H]4CCCN4C(=O)CNC(=O)[C@H](CC(N)=O)NC(=O)[C@@H](NC(=O)CNC(=O)[C@H](Cc4ccccc4)NC(=O)CN)CSSC[C@H](NC(=O)[C@H](Cc4ccc(O)cc4)NC(=O)CNC(=O)CNC(=O)[C@H](CCCCN)NC(=O)[C@H](Cc4ccc(O)cc4)NC(=O)CNC(=O)[C@H](CCCCN)NC1=O)C(=O)N[C@@H](C)C(=O)N[C@@H](CCCCN)C(=O)NCC(=O)NCC(=O)N[C@@H](Cc1ccccc1)C(=O)N[C@@H](C(C)C)C(=O)N3)C(=O)N[C@@H](Cc1c[nH]cn1)C(=O)N[C@@H](CC(N)=O)C(=O)N[C@@H](Cc1c[nH]cn1)C(=O)N2 [NZL] (H-GFGCNGPWSEDDIQCHNHCKSIKGYKGGYCAKGGFVCKCY-OH; disulfide 4-30, 15-37, 19-39; N-terminus and C-terminus assumed)
[1]
  MIC: 0.23 µM (≈ 1 µg/mL)
[1]; clinical strain, NZL vs NZ2114
  Change of MIC against S. hyicus ACCC 61734 compared with NZ2114: four-fold
[2]; S. aureus ATCC 43300, microbroth dilution, MHB, 37 °C, 16–20 h, triplicate
  MIC: 0.46 µM
[3]; microbroth dilution
  MIC: 4 µg/mL
[3]; [17]
  MIC: 0.92 µM
[4]; microbroth dilution
  MIC: 4 µg/mL
[4]; [17]
  MIC: 0.92 µM
[12]; 20 to 80 °C
  Thermal stability: good thermal stability
[12]; 100 °C
  Activity after heating: no activity
[5]; 1× MIC, MHB
  Reduction of bacterial counts: 7.37 Log10 CFU/mL
[5]; 2× and 4× MIC, 1 × 10^5 CFU/mL in MHB, colony counting
  Time within which S. hyicus NCTC 10350 cells were killed completely: ≤ 8 h
[6]; 10× MIC
  Decrease of intracellular S. hyicus: 84.95%
[6]
  Killing rate of intracellular S. hyicus: 99.96%
[13]
  Maximum hemolysis: 1.11%
[14]
  Organ injury (livers, spleens, lungs, kidneys): apparently less damaged
[15]
  Minimum cell viability: 60.28%
[7]; 10 mg/kg, 2 h after treatment
  Serum level of IL-6: 1029.28 pg/mL
[7]; 10 mg/kg, 24 h after treatment
  Serum level of IL-6: 44.92 pg/mL
[8]; 10 mg/kg, 2 h after treatment
  Serum level of TNF-α: 184.14 pg/mL
[8]; 10 mg/kg, 24 h after treatment
  Serum level of TNF-α: 5.75 pg/mL
[9]; 10 mg/kg, 2 h after treatment
  Serum level of IL-1β: 74.00 pg/mL
[9]; 10 mg/kg, 24 h after treatment
  Serum level of IL-1β: 24.02 pg/mL
[16]; pH 2 to 10, 37 °C, inhibition zone against S. hyicus NCTC 10350
  pH stability: retained strong stable activity
[16]; pH 4, 37 °C, inhibition zone against S. hyicus NCTC 10350, relative to untreated peptide
  Activity in the acidic environment: 94%
[10]; 10 mg/kg
  Bacterial counts in blood: 0.16 Log10 CFU/0.1 g
  Bacterial counts in kidneys: 0.25 Log10 CFU/0.1 g
  Bacterial counts in livers: 0.34 Log10 CFU/0.1 g
  Bacterial counts in lungs: 0.62 Log10 CFU/0.1 g
  Bacterial counts in spleens: 0.58 Log10 CFU/0.1 g
[11]; 5 mg/kg i.p. at 2 h and 8 h post-infection, ICR mice, S. hyicus NCTC 10350 10^9 CFU i.p., 6 mice/group
  Survival rate: 50%
[11]; 10 mg/kg i.p. at 2 h and 8 h post-infection, ICR mice, S. hyicus NCTC 10350 10^9 CFU i.p., 6 mice/group
  Survival rate: 83.3%
